Consider 4 compounds from US20230090255A1, “MAGL INHIBITOR, PREPARATION METHOD THEREFOR AND USE THEREOF” (LUNAN PHARMACEUTICAL GROUP CORPORATION, priority 2019, published 2023).

Structures can show the parent of a compound that is named as a salt.

In data set [1] the test system is mice forced swimming test. Briefly: Mice forced swimming test. It counts as in vivo, ICR mice. The settings on record: for Accumulated immobility time: forced swimming, 6 min, 5 mg/kg intragastric once per day 10 d, 1 h after final administration. The method, then:
(§1) Male ICR mice having a body weight of 18-22 g. The animals were active on a schedule of normal illumination for 12 h and in the dark for 12 h. Environmental temperature and relative humidity were relatively kept for 22±1° C. and 55±5%.
(§2) There were 7 groups of laboratory mice, 10 pieces each group, set as a control group (normal saline), a positive control group (fluoxetine hydrochloride capsule, 5 mg/kg), 5 MAGLZ-II series of administration treatment groups: MAGLZ-II-06, MAGLZ-II-07, MAGLZ-II-11, MAGLZ-II-17 and MAGLZ-II-18, respectively, with an administration concentration of 5 mg/kg.
(§3) All medicaments were used once per day via intragastric administration with a dose of 20 mL/kg (body weight), lasting for 10 d. 1 h later after the final administration, the detection of animal behaviors was started.
Mice forced swimming test was performed according to the method established by Porsolt (Porsolt R D. Behavioural despair in mice: A primary screening test for antidepressants[J]. Arch. Int. Pharmacolodyn. 1977, 229). […] Each mouse was judged as still when stopped struggling, kept suspension in water and only made necessary movement to keep the head above the water.
(§4) All data are shown by x̅±SD, and the comparison among groups is analyzed by one-way variance.

Data set [2] relates to mice tail suspension test. Nature of the data set: Mice tail suspension test. It counts as in vivo, ICR mice. The settings on record: final 4 min of 6 min, 5 mg/kg intragastric once per day 10 d. The method, then:
as §1, §2, §3
The tail suspension test (TST) was performed by the method established by Porsolt, et al. (Porsolt R D, Le Pichon M, Jalfre M. Depression: a new animal model sensitive to antidepressant treatments[J]. Nature, 1977, 266(5604):730-732). Mice were respectively suspended on the tail portions with tail suspension clamps at a distance of 10 mm away from the tail portion of the box (250 mm×250 mm×300 mm) and a distance of 5 cm where the head of each mouse was away from the bottom portion. Noise was tested in a dark room having minimum background, and each mouse was suspended for 6 min, and an immobility time was recorded at intervals in the final 4 min. Judgment standard: the mice stopped struggling and kept still completely.
as §4

Data set [3] can be described thus: Tissue distribution test in mice. Also on record: content in the brain (tissue distribution): unit not given here. It counts as in vivo. The settings on record: 16 mg/kg subcutaneous injection.
In data set [4] the target is T1, recombinant human protein MAGL (Homo sapiens, UniProt Q99685).
T1 construct: purchased Cayman
T1 sequence (Q99685 1-303): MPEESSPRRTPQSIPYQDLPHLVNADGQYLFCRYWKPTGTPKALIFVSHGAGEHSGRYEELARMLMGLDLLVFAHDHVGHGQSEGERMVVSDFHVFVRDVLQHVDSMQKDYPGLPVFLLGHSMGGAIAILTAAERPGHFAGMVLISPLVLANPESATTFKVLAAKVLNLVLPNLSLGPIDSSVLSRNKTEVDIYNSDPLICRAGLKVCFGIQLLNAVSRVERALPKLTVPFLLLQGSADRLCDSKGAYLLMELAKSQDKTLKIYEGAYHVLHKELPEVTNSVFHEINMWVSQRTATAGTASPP
Nature of the data set: MAGL enzyme analysis (Cayman MAGL inhibitor screening kit). The class given is biochemical. The settings on record: 4-nitrophenylacetic acid substrate, absorbance 410 nm, read-out: MAGLXIC50. The method, then: 150 µL 1Xassay buffer, 10 µL recombinant human protein MAGL and 10 µL different concentrations of MAGL inhibitors (six points within 1 nM to 1000 nM) were added to per well of a 96-well plate. JZL195 (a positive control inhibitor) served as a positive control well, after incubation for 5 min at room temperature, per well was added with 10 µL MAGL substrate, and […] were vibrated for 10 s and placed for 10 min at room temperature, then an absorbance was detected at 410 nm. […] Graphad Prism 5.0 was taken to calculate IC50 curves fitting each inhibitor.

The test system of data set [5] is reserpine-induced mice depression. Nature of the data set: Reserpine-induced mice depression. The class given is in vivo, ICR mouse. Also on record: Awakening / Finger contact / Head touch / Fear / Autonomic activity / Eyelid closure / Upright: scale not given here. The settings on record: for Eyelid closure: 2 h after reserpine 4 mg/kg. The procedure: • Species: ICR mouse • Microbiological level: SPF • Quantity and sex of the animals purchased: male: 75; female: 75 • Quantity and sex of the animals used: male: 75; female: 75 • Body weight: 13-18 g when accepted
Group design: there were 50 pieces for each batch of animals and 3 batches in total; each batch of animals were randomly divided into 5 groups; low, middle and high-dose groups of the samples for test, blank control group and model group; a sample for test was tested per batch.
3.1 Animals were administrated via subcutaneous injection per day with doses of 4, 8 and 16 mg/kg for 6 d in total. 2 h later after the final administration, each animal was subcutaneously injected with 4 mg/kg reserpine except the blank control group; afterwards, indicators, such as, awakening, finger contact, fear, head touch, autonomic activity, upright and eyelid closure were determined 2 h later.
Data statistics and analysis were completed via a computer by SPSS 17.0 software and office 2016, and data statistics was inspected by Kruskal-Wallis. If the Kruskal-Wallis inspection result is significant ((P<0.05), multiple comparison inspection is further performed by a Mann-Whitney U nonparametric test method.

`CNCCC(Oc1ccc(C(F)(F)F)cc1)c1ccccc1` (stereo not drawn) [Fluoxetine hydrochloride capsule, Fluoxetine hydrochloride, reference compound]: the “accumulated immobility time of mice forced swimming test, in words” value in data set [1] (5 mg/kg intragastric 10 d, P<0.05) is “obviously shorten”. Moreover, the Accumulated immobility time stood at 92.64±29.17 S in data set [1] and 92.19±23.63 S in data set [2].

Regarding `O=C(Nc1cccc(O)c1)C1CCN(C(=O)c2ccc(Cl)cc2)CC1` [MAGLZ-II-06], the Accumulated immobility time in data set [1] is 89.23±46.37 S; in data set [2] it was 90.73±30.51 S.

On to `COc1cccc(C(=O)N2CCC(C(=O)Nc3ccc(Cl)cc3)CC2)c1` [MAGLZ-II-07], for which the Accumulated immobility time in data set [1] is given as 91.31±41.85 S; in data set [2], 89.66±31.52 S.

For `O=C(Nc1cccc(Cl)c1)C1CCN(C(=O)c2ccc3ccccc3c2)CC1` [MAGLZ-II-17], the results for the Accumulated immobility time in data set [1] and in data set [2] were 79.38±41.67 S and 89.87±29.68 S, respectively. Moreover, in data set [3], the “content in the brain, ranking of the test substances” value is recorded as “ranking the second”. In addition, the figures for the “content in the brain (tissue distribution)” value in data set [3] (1.0 h), in data set [3] (2.0 h) and in data set [3] (5.0 h) were 2.9, 9.4 and 4.8, respectively. In addition, in data set [4], the IC50 turned out to be 15 nM. In addition, in data set [5] (4, 8 and 16 mg/kg sc 6 d), the “effect on reserpine-induced depression (conclusion)” value is recorded as “may enhance the effect”. The results for the Eyelid closure in data set [5] (high dose 16 mg/kg sc 6 d), in data set [5] (low dose 4 mg/kg sc 6 d) and in data set [5] (middle dose 8 mg/kg sc 6 d) were 0.25±0.66, 2.25±0.66 and 1±1.00, respectively.
